Measured values published in ChEMBL document CHEMBL3124777, “Synthesis and biological evaluation of thiazoline derivatives as new antimicrobial and anticancer agents” (Eur J Med Chem, 2014).
In brackets after ≈: the same amount, converted by molar mass.

Assays:
C6 [1] = test: Cytotoxicity against rat C6 cells after 24 hrs by MTT assay; format: functional, cell-based; details: C6, 24 h
NIH3T3 = test: Cytotoxicity against mouse NIH/3T3 cells after 24 hrs by MTT assay; format: cell-based; details: NIH3T3, 24 h
C6 [2] = test: Cytotoxicity against rat C6 cells assessed as cell viability at 200 ug/ml after 24 hrs by MTT assay relative to control; format: functional; details: C6, 24 h, read-out: Activity
C6 [3] = test: Cytotoxicity against rat C6 cells assessed as cell viability at 100 ug/ml after 24 hrs by MTT assay relative to control; format: functional; details: C6, 24 h, read-out: Activity
C6 [4] = test: Cytotoxicity against rat C6 cells assessed as cell viability at 50 ug/ml after 24 hrs by MTT assay relative to control; format: functional; details: C6, 24 h, read-out: Activity
C6 [5] = test: Cytotoxicity against rat C6 cells assessed as cell viability at 25 ug/ml after 24 hrs by MTT assay relative to control; format: functional; details: C6, 24 h, read-out: Activity
C6 [6] = test: Cytotoxicity against rat C6 cells assessed as cell viability at 12 ug/ml after 24 hrs by MTT assay relative to control; format: functional; details: C6, 24 h, read-out: Activity
C6 [7] = test: Cytotoxicity against rat C6 cells assessed as cell viability at 6 ug/ml after 24 hrs by MTT assay relative to control; format: functional; details: C6, 24 h, read-out: Activity
Candida albicans = test: Antimicrobial activity against Candida albicans ATCC 22019 after 18 to 24 hrs by microbroth dilution method; format: functional
Fusarium culmorum = test: Antimicrobial activity against wild type Fusarium culmorum after 48 to 72 hrs by microbroth dilution method; format: functional
Fusarium verticillioides = test: Antimicrobial activity against Fusarium moniliforme NRRL 1866 after 48 to 72 hrs by microbroth dilution method; format: functional
Fusarium solani = test: Antimicrobial activity against Fusarium solani NRRL 13414 after 48 to 72 hrs by microbroth dilution method; format: functional
Aspergillus ochraceus = test: Antimicrobial activity against Aspergillus ochraceus NRRL 3174 after 48 to 72 hrs by microbroth dilution method; format: functional
Trichoderma harzianum = test: Antimicrobial activity against Trichoderma harzianum NRRL 20565 after 48 to 72 hrs by microbroth dilution method; format: functional
Penicillium chrysogenum = test: Antimicrobial activity against Penicillium chrysogenum NRRL 1951 after 48 to 72 hrs by microbroth dilution method; format: functional
Aspergillus parasiticus = test: Antimicrobial activity against Aspergillus parasiticus NRRL 465 after 48 to 72 hrs by microbroth dilution method; format: functional
Bacillus subtilis = test: Antimicrobial activity against Bacillus subtilis NRS-744 after 18 to 24 hrs by microbroth dilution method; format: functional
Micrococcus luteus = test: Antimicrobial activity against Micrococcus luteus NRLL B-4375 after 18 to 24 hrs by microbroth dilution method; format: functional
Pseudomonas aeruginosa = test: Antimicrobial activity against Pseudomonas aeruginosa […] after 18 to 24 hrs by microbroth dilution method; format: functional
Escherichia coli = test: Antimicrobial activity against Escherichia coli ATCC 25922 after 18 to 24 hrs by microbroth dilution method; format: functional
Listeria monocytogenes = test: Antimicrobial activity against Listeria monocytogenes ATCC 7644 after 18 to 24 hrs by microbroth dilution method; format: functional
Staphylococcus aureus = test: Antimicrobial activity against Staphylococcus aureus NRRL B-767 after 18 to 24 hrs by microbroth dilution method; format: functional

SMILES | IC50 (C6 [1]) [µg/mL] | IC50 (NIH3T3) [µg/mL] | viability at 200 µg/mL (C6 [2]) [%] | viability at 100 µg/mL (C6 [3]) [%] | viability at 50 µg/mL (C6 [4]) [%] | viability at 25 µg/mL (C6 [5]) [%] | viability at 12 µg/mL (C6 [6]) [%] | viability at 6 µg/mL (C6 [7]) [%] | MIC (Candida albicans) [µg/mL] | MIC (Fusarium culmorum) [µg/mL] | MIC (Fusarium verticillioides) [µg/mL] | MIC (Fusarium solani) [µg/mL] | MIC (Aspergillus ochraceus) [µg/mL] | MIC (Trichoderma harzianum) [µg/mL] | MIC (Penicillium chrysogenum) [µg/mL] | MIC (Aspergillus parasiticus) [µg/mL] | MIC (Bacillus subtilis) [µg/mL] | MIC (Micrococcus luteus) [µg/mL] | MIC (Pseudomonas aeruginosa) [µg/mL] | MIC (Escherichia coli) [µg/mL] | other results
O=C(CSc1ncccn1)N/N=c1/scc(-c2ccc(Br)cc2)n1-c1ccccc1 | > 200 | 273 (≈ 548 µM) | 63.2 | 67.6 | 69 | 72.3 | 72.1 | 76.4 | 250 (≈ 502 µM) | 250 (≈ 502 µM) | 250 (≈ 502 µM) | 250 (≈ 502 µM) | 250 (≈ 502 µM) | 250 (≈ 502 µM) | 250 (≈ 502 µM) | 250 (≈ 502 µM) | 250 (≈ 502 µM) | 250 (≈ 502 µM) | 250 (≈ 502 µM) | 250 (≈ 502 µM) | MIC (Listeria monocytogenes): 250 µg/mL (≈ 502 µM); MIC (Staphylococcus aureus): 500 µg/mL (≈ 1000 µM)
Cn1nnnc1SCC(=O)N/N=c1/scc(-c2ccc([N+](=O)[O-])cc2)n1-c1ccccc1 | > 200 | 167 (≈ 356 µM) | 58.6 | 64.1 | 69.2 | 69.3 | 76.2 | 80.4 | 250 (≈ 534 µM) | 250 (≈ 534 µM) | 250 (≈ 534 µM) | 250 (≈ 534 µM) | 250 (≈ 534 µM) | 125 (≈ 267 µM) | 250 (≈ 534 µM) | 250 (≈ 534 µM) | 500 (≈ 1070 µM) | 250 (≈ 534 µM) | 250 (≈ 534 µM) | 250 (≈ 534 µM) | MIC (Listeria monocytogenes): 250 µg/mL (≈ 534 µM); MIC (Staphylococcus aureus): 250 µg/mL (≈ 534 µM)
O=C(CSc1ncccn1)N/N=c1/scc(-c2ccc(Cl)cc2)n1-c1ccccc1 | 83.3 (≈ 183 µM) | 397 (≈ 874 µM) | 39.7 | 45.5 | 61.8 | 91.1 | 91.6 | 95.9 | 250 (≈ 551 µM) | 250 (≈ 551 µM) | 250 (≈ 551 µM) | 250 (≈ 551 µM) | 250 (≈ 551 µM) | 250 (≈ 551 µM) | 250 (≈ 551 µM) | 250 (≈ 551 µM) | 500 (≈ 1100 µM) | 250 (≈ 551 µM) | 250 (≈ 551 µM) | 250 (≈ 551 µM) | MIC (Listeria monocytogenes): 250 µg/mL (≈ 551 µM); MIC (Staphylococcus aureus): 500 µg/mL (≈ 1100 µM)
Cc1ccc(-c2cs/c(=N/NC(=O)CSc3nncn3C)n2-c2ccccc2)cc1 | 56 (≈ 128 µM) | 130 (≈ 298 µM) | 27.8 | 39.6 | 53.8 | 70.7 | 72 | 74.6 | 125 (≈ 286 µM) | 250 (≈ 573 µM) | 250 (≈ 573 µM) | 250 (≈ 573 µM) | 250 (≈ 573 µM) | 125 (≈ 286 µM) | 250 (≈ 573 µM) | 250 (≈ 573 µM) | 250 (≈ 573 µM) | 125 (≈ 286 µM) | 250 (≈ 573 µM) | 125 (≈ 286 µM) | MIC (Listeria monocytogenes): 250 µg/mL (≈ 573 µM); MIC (Staphylococcus aureus): 250 µg/mL (≈ 573 µM)
O=C(CSc1ncccn1)N/N=c1/scc(-c2ccc(F)cc2)n1-c1ccccc1 | 110 (≈ 251 µM) | > 500 | 32.2 | 53.4 | 55.5 | 63.9 | 77.4 | 84 | 250 (≈ 571 µM) | 250 (≈ 571 µM) | 250 (≈ 571 µM) | 250 (≈ 571 µM) | 250 (≈ 571 µM) | 250 (≈ 571 µM) | 250 (≈ 571 µM) | 250 (≈ 571 µM) | 500 (≈ 1140 µM) | 250 (≈ 571 µM) | 250 (≈ 571 µM) | 250 (≈ 571 µM) | MIC (Listeria monocytogenes): 250 µg/mL (≈ 571 µM); MIC (Staphylococcus aureus): 500 µg/mL (≈ 1140 µM)
Cn1nnnc1SCC(=O)N/N=c1/scc(-c2ccccc2)n1-c1ccccc1 | 67.7 (≈ 160 µM) | 173 (≈ 409 µM) | 26.8 | 38.8 | 56.2 | 64.2 | 80.7 | 85.2 | 250 (≈ 590 µM) | 250 (≈ 590 µM) | 250 (≈ 590 µM) | 250 (≈ 590 µM) | 250 (≈ 590 µM) | 125 (≈ 295 µM) | 250 (≈ 590 µM) | 250 (≈ 590 µM) | 250 (≈ 590 µM) | 250 (≈ 590 µM) | 250 (≈ 590 µM) | 250 (≈ 590 µM) | MIC (Listeria monocytogenes): 250 µg/mL (≈ 590 µM); MIC (Staphylococcus aureus): 250 µg/mL (≈ 590 µM)
N#Cc1ccc(-c2cs/c(=N/NC(=O)CSc3nnnn3-c3ccccc3)n2-c2ccccc2)cc1 | > 200 | 453 (≈ 888 µM) | 54 | 59.8 | 61.1 | 64.2 | 74.1 | 78.8 | 250 (≈ 490 µM) | 250 (≈ 490 µM) | 250 (≈ 490 µM) | 250 (≈ 490 µM) | 250 (≈ 490 µM) | 250 (≈ 490 µM) | 250 (≈ 490 µM) | 250 (≈ 490 µM) | 250 (≈ 490 µM) | 250 (≈ 490 µM) | 250 (≈ 490 µM) | 250 (≈ 490 µM) | MIC (Listeria monocytogenes): 250 µg/mL (≈ 490 µM); MIC (Staphylococcus aureus): 500 µg/mL (≈ 979 µM)
